Laboratory results from patent publication US20180179499A1, “BIOBASED PRODUCTION OF FUNCTIONALIZED ALPHA-SUBSTITUTED ACRYLATES AND C4-DICARBOXYLATES” (BIOAMBER INC., priority 2015, published 2018).
Residue numbers refer to the chain shown, from its start. Numbers in names are those of the source.

B1: LiLeuA: candidate synthase LeuA/CimA, Leptospira interogans, GenBank AAN49401 (protein, UniProt Q72RL9 1-501, looked up)
2-isopropylmalate synthase: MDLKDYVRIFDTTLRDGEQCPGAAMTENEKLEIASQLATMKVDIIEAGFPVSSPVQFQAVERIARETEGPMIAALARAMKADIEAASKALQPAKKRRIHTFIASSPIHMKYKLGKEPKEVLKMAVEAVTLCRQFVDDVEFSPEDATRSEPEFLRELCEAVIAAGATTINIPDTVGYTTPAEYGGLFKFLLSNVRGAEKIIFSAHCHNDLGLATANSLAAVQNGARQIECTINGIGERAGNTAMEEVVMAMRTRKDTFGIQTQIKTEEIARASYLVKTITGMLVQPNKAIVGANAFAHESGIHQDGVIKHRETYEIMKPETVGLSSNRMVLGRHSGRAGFKDRIVKLGFSPQVEELEAAYQRFLEIADRKKEIYDEDIRALFSEEARKSTGDRFQLEGFTVSTGTKSTPTAGVRILIDGHVREESATGDGPVDAIYKAIQKTTGMDPEVSRLVISPVTEGQDAMAEASVTLEYKGDRVVGKGSSTDIIEACSRAYISALNRL
B2: SpLys4mt1: Lys4 mutant D123N, Schizosaccharomyces pombe (protein, UniProt Q9Y823 1-418, looked up, variant D123N)
chain: MSVSEANGTETIKPPMNGNPYGPNPSDFLSRVNNFSIIESTLREGEQFANAFFDTEKKIQIAKALDNFGVDYIELTSPVASEQSRQDCEAICKLGLKCKILTHIRCHMDDARVAVETGVDGVNVVIGTSQYLRKYSHGKDMTYIIDSATEVINFVKSKGIEVRFSSEDSFRSDLVDLLSLYKAVDKIGVNRVGIADTVGCATPRQVYDLIRTLRGVVSCDIECHFHNDTGMAIANAYCALEAGATHIDTSILGIGERNGITPLGALLARMYVTDREYITHKYKLNQLRELENLVADAVEVQIPFNNYITGMCAFTHKAGIHAKAILANPSTYEILKPEDFGMSRYVHVGSRLTGWNAIKSRAEQLNLHLTDAQAKELTVRIKKLADVRTLAMDDVDRVLREYHADLSDADRITKEASA
B3: SpLys4mt2: Lys4 mutant D123N, V125F, Schizosaccharomyces pombe (protein, UniProt Q9Y823 1-418, looked up, variant D123N V125F)
chain: B2 chain with V125F
B4: SpLys4mt3: Lys4 mutant D123N, V125F, I194L, Schizosaccharomyces pombe (protein, UniProt Q9Y823 1-418, looked up, variant D123N V125F I194L)
chain: B2 chain with V125F, I194L
B5: EcLeuA: candidate synthase LeuA, Escherichia coli, GenBank AAC73185 (protein, UniProt P09151 2-523, looked up)
2-isopropylmalate synthase: SQQVIIFDTTLRDGEQALQASLSVKEKLQIALALERMGVDVMEVGFPVSSPGDFESVQTIARQVKNSRVCALARCVEKDIDVAAESLKVAEAFRIHTFIATSPMHIATKLRSTLDEVIERAIYMVKRARNYTDDVEFSCEDAGRTPIADLARVVEAAINAGATTINIPDTVGYTMPFEFAGIISGLYERVPNIDKAIISVHTHDDLGLAVGNSLAAVHAGARQVEGAMNGIGERAGNCSLEEVIMAIKVRKDILNVHTAINHQEIWRTSQLVSQICNMPIPANKAIVGSGAFAHSSGIHQDGVLKNRENYEIMTPESIGLNQIQLNLTSRSGRAAVKHRMDEMGYKESEYNLDNLYDAFLKLADKKGQVFDYDLEALAFIGKQQEEPEHFRLDYFSVQSGSNDIATAAVKLACGEEVKAEAANGNGPVDAVYQAINRITEYNVELVKYSLTAKGHGKDALGQVDIVANYNGRRFHGVGLATDIVESSAKAMVHVLNNIWRAAEVEKELQRKAQHNENNKETV
B6: ScLys20: candidate synthase lys20, Saccharomyces cerevisiae, GenBank CAA58264 (protein, UniProt P48570 1-428, looked up)
Homocitrate synthase, …: MTAAKPNPYAAKPGDYLSNVNNFQLIDSTLREGEQFANAFFDTEKKIEIARALDDFGVDYIELTSPVASEQSRKDCEAICKLGLKAKILTHIRCHMDDAKVAVETGVDGVDVVIGTSKFLRQYSHGKDMNYIAKSAVEVIEFVKSKGIEIRFSSEDSFRSDLVDLLNIYKTVDKIGVNRVGIADTVGCANPRQVYELIRTLKSVVSCDIECHFHNDTGCAIANAYTALEGGARLIDVSVLGIGERNGITPLGGLMARMIVAAPDYVKSKYKLHKIRDIENLVADAVEVNIPFNNPITGFCAFTHKAGIHAKAILANPSTYEILDPHDFGMKRYIHFANRLTGWNAIKARVDQLNLNLTDDQIKEVTAKIKKLGDVRSLNIDDVDSIIKNFHAEVSTPQVLSAKKNKKNDSDVPELATIPAAKRTKPSA

Columns and labels:
[1] = system: potential yeast hosts (I. orientalis, S. cerevisiae); test: Tolerance of potential yeast hosts: maximum concentration in which growth was detected; assay type: cell-based
Protocol: (§1) Two eukaryotic strains, I. orientalis and S. cerevisiae, were tested at pH 3 and pH 5. Three bacterial strains were tested using their individual optimal conditions. E. coli and C. glutamicum were tested at pH 8 and 30° C., and B. firmus was tested at pH 9 and 37° C. I. orientalis was grown in defined yeast media consisting of 5 g/L ammonium sulfate, 0.5 g/L magnesium sulfate heptahydrate, 3 g/L potassium phosphate monobasic, 10 g/L dextrose, 1 mL/L of 10% glycerol stock, 1 mL/L of 1000× trace. The 1000× trace stock solution contains 4 g/L ZnSO4.7H2O, 2 g/L FeSO4.7H2O, 1 g/L MnSO4.H2O, 0.2 g/L CuSO4.5H2O, and 0.8 mL/L H2SO4. S. cerevisiae was grown in buffered defined dextrose media consisting of 50 g/L dextrose, 5 g/L yeast extract, and 40 mL/L 25× DM salts. The 25× DM salt stock solution contains 125 g/L ammonium sulfate, 12.5 g/L magnesium sulfate heptahydrate, 75 g/L potassium phosphate monobasic, and 787.5 g/L water. The bacterial strains were grown in standard LB media consisting of 10 g/L bacto-tryptone, 5 g/L yeast extract, 10 g/L NaCl, and 20 g/L dextrose with addition of 20 g/L glucose.
(§2) Time points were taken over a period of at least 8 hours and up to 24 hours to calculate the rate of growth. Specific growth rate was determined by plotting the natural logarithm of cell number against time. Tolerance was determined by growth rate of cells in the presence of the compound as compared to in the absence of the compound.
(§3) Two eukaryotic strains, I. orientalis and S. cerevisiae, were tested for tolerance to the selected compounds at pH 3 and pH 5. The bacterial strains were grown at their individual optimal conditions, E coli and C. glutamicum at pH 8 and 30° C., and B. firmus and B. cohnii at pH 9 and 37° C. I. orientalis was grown in defined yeast media consisting of 5 g/L ammonium sulfate, 0.5 g/L magnesium sulfate heptahydrate, 3 g/L potassium phosphate monobasic, 10 g/L dextrose, 1 mL/L of 10% glycerol stock, 1 mL/L of 1000× trace. The 1000× trace stock solution contains 4 g/L ZnSO4.7H2O, 2 g/L FeSO4.7H2O, 1 g/L MnSO4.H2O, 0.2 g/L CuSO4.5H2O, and 0.8 mL/L H2SO4. S. cerevisiae was grown in buffered defined dextrose media consisting of 50 g/L dextrose, 5 g/L yeast extract, and 40 mL/L 25×DM salts. The 25×DM salt stock solution contains 125 g/L ammonium sulfate, 12.5 g/L magnesium sulfate heptahydrate, 75 g/L potassium phosphate monobasic, and 787.5 g/L water. The bacterial strains were grown in standard LB media consisting of 10 g/L bacto-tryptone, 5 g/L yeast extract, 10 g/L NaCl, and 20 g/L dextrose with addition of 20 g/L glucose.
as §2

[2] = system: potential bacterial hosts (E. coli, C. glutamicum, B. firmus, B. cohnii); test: Tolerance of potential bacterial hosts: highest concentration with growth observed; assay type: cell-based; conditions: Table L
Protocol: as §1, §2, §3, §2

[3] = Synthase activity assay (DTNB, lysates of BL21 E. coli expressing the candidate); assay type: biochemical; conditions: 0.5 mM hydroxypyruvate
Protocol: E coli optimized genes encoding synthases were synthesized and cloned into pTrcHisA (Life Technologies (formerly Invitrogen)). Synthase genes tested are found in Table G. Plasmids containing the optimized synthase genes were transformed into BL21 E. coli cells. Empty plasmid pTrcHisA was also transformed as a negative control. […]. Flasks were incubated at 30° C. at 250 rpm shaking for 2 hours, then protein production was induced with 0.2 mM IPTG and incubated for 4 more hours at 30° C. while shaking. Cells were harvested by centrifugation and pellets were stored at −80° C.
Activity of synthase candidates was assessed with an in vitro assay using DTNB (5,5′-Dithiobis(2-nitrobenzoic acid)) as an indicator. The enzyme activity was tested using either no substrate or hydroxypyruvate as the substrate. The DTNB interacts with the free thio created by the condensation of acetyl-CoA and the substrate present. Unless otherwise specified, all chemicals were purchased from Sigma-Aldrich Chemical Company, St. Louis, Mo.
Cells were lysed using mechanical disruption using a BeadBeater (BopSpec products, Bartlesville, Okla.) following the manufacturer's instructions. The cell lysate was partially clarified by centrifugation (14,000G for 5 minutes). Protein concentrations of the resulting clarified lysates were measured via BioRad total Protein assay using the manufacturer's instructions. Lysates were normalized by protein concentration in 100 mM Tris buffer. The normalized lysates were diluted 1 to 7 in 100 mM Tris buffer. 20 μl of lysate was added to each well for the 96-well plate assay. Each condition was performed in triplicate.
The reaction mixture contains 100 mM Tris pH 7.4, 5 mM MgSO4, 0.2 mM acetyl-CoA, 0.5 mM DTNB, 0.5 mM substrate, hydroxypyruvate. To start the reaction, 180 μl of reaction mix was added to each well already containing 20 μl lysate. The reactions in these microplates were monitored at 412 nm. Readings were taken every 9 seconds for 10 minutes and the data was used to calculate activities of each enzyme. Synthase activity was observed when hydroxypyruvate was the substrate as compared to cells containing empty vector (FIG. 20(a), Table G). Background absorbance as measured by the same reaction with no substrate present were subtracted. Error bars in the graphs reflect the standard deviations calculated for the averages for each condition performed in triplicate. Specific mutations change the activity of the enzymes tested (FIG. 20(b), Table H). Further enzyme engineering will improve specificity and activity of desired enzymatic reaction.

[4] = Table G, 0.2 mM acetyl-CoA, pH 7.4, no-substrate background subtracted
[5] = Table H, wild type and mutant synthases

Row | Molecule | Max conc (maximum concentration in which growth was detected) ([1]; Table K) [g/L] | Max conc (maximum concentration in which growth was detected) [2] [g/L] | further results
1 | CC(C)C(O)(CC(=O)O)C(=O)O (centres unmarked) [2-isopropylmalic acid] | – | – | Max conc (maximum concentration in which growth was detected) ([1]; Table E): 50 g/L
2 | C=C1CC(C)OC1=O (centres unmarked) [MeMBL, methyl 2-methylene 4 butyrolactone] | 5 | 5 | –
3 | C=CC(=O)OCO [Hydroxymethyl acrylate] | 20 | 20 | –
4 | Methyl hydroxyethyl acrylate | 5 | 20 | –
5 | C=C1CCOC1=O [MBL] | 5 | 5 | –
6 | AvNifV: candidate synthase NifV, Azotobacter vinelandii, GenBank AAA22169 | – | – | Activity with hydroxy pyruvate [3, 4]: 0.054 µmol/min/mg
7 | C=CC(=O)OCCO [Hydroxyethyl acrylate] | 5 | 20 | –
8 | CC(C)C(C(=O)O)C(O)C(=O)O (centres unmarked) [3-isopropylmalic acid] | – | – | Max conc (maximum concentration in which growth was detected) ([1]; Table E): 50 g/L
9 | C=C(CO)C(=O)OCC [Ethyl hydroxymethyl acrylate] | 20 | – | –
10 | B1 | – | – | Activity with hydroxy pyruvate [3, 4]: 0.045 µmol/min/mg
11 | B2 | – | – | Activity with hydroxy pyruvate [3, 5]: 0.004
12 | B3 | – | – | Activity with hydroxy pyruvate [3, 5]: 0.009
13 | B4 | – | – | Activity with hydroxy pyruvate [3, 5]: 0.013
14 | B5 | – | – | Activity with hydroxy pyruvate [3, 4]: 0.022 µmol/min/mg
15 | B6 | – | – | Activity with hydroxy pyruvate [3, 4]: 0.095 µmol/min/mg
